Laboratory results: patent US11420922B2, “Hydroxylated tropolone inhibitors of nucleotidyl transferases in herpesvirus and Hepatitis B and uses therefor” (Saint Louis University, priority 2015, dated 2022)
Entries after “also recorded” stand apart in the source; their conditions may differ. Read-outs that look alike come from different tables or passages of the source.

Assays:
HSV-1 [1] = experiment: Anti-HSV-1 replication assay in Vero cells, titers by plaque assay; assay type: cell-based, herpes simplex virus 1; details: for log reduction at 5 µM / log reduction at 50 µM / EC50: 24 h; for log reduction at 5 µM: read-out: HSV-1 Log suppression 5 μM; for log reduction at 50 µM: read-out: HSV-1 Log suppression 50 μM; for EC50: read-out: HSV-1 EC50
Method: Vero cells were maintained in Dulbecco's modified Eagle's medium (DMEM) containing 3% newborn calf serum, 3% bovine growth serum, 2 mM L-glutamine and 100 IU/mL penicillin and 0.1 mg/mL streptomycin (P/S). HSV-1 #6 and HSV-2 #1 are de-identified clinical isolates from the Saint Louis University Hospital. Stocks were prepared after a single passage in cell culture and were titered by standard plaque assay (Knipe and Spang, 1982). Wild-type HSV-2 used in FIG. 3 was laboratory strain 333. […] Virus stocks were grown and titered on Vero cells (Morrison and Knipe, 1996).
(§1) Compounds to be screened were diluted in PBS supplemented to contain 2% newborn calf serum and 1% glutamine, and added in 100 μL volume to confluent cell monolayers in 24-well cluster plates. Immediately thereafter HSV-1 and HSV-2, diluted in the supplemented PBS medium, were added to the wells in 50 μl volume such that the final concentration of compound was 50 μM and 5 μM and the multiplicity of infection was 0.1. The plates were incubated at 37° C. for 1 hour and then virus-containing inoculum was removed and the wells were washed once in PBS. Compounds, diluted to 50 μM and 5 μM in DMEM supplemented to contain 2% newborn calf serum and 1% each penicillin/streptomycin, were added at 0.5 mL/well. Plates were incubated at 37° C. an additional 23 hr, and then the plates were visually inspected through a phase contrast microscope for cytopathic effect, and for toxic effect. […] The entire contents of each well were collected by scraping. Samples were frozen at −80° C., and then subsequently thawed, sonicated, and infectious virus titer was determined by standard plaque assay on Vero cell monolayers. Because the compounds were dissolved at 10 mM in 100% DMSO, equivalent dilutions of DMSO were added to additional wells as a control for effects of the diluent. Each experiment was repeated once. EC50 values were determined as above except that serial dilutions of the compound to be tested were prepared starting at 50 μM. The inhibitory values were calculated by non-linear curve-fitting in GraphPad Prism.

HSV-2 [2] = details: 5 μM or less; cited from earlier work
HBV = HBV replication assay in HepDES19 cells; assay type: cell-based; details: Hepatitis B virus; HepDES19 cells; read-out: EC50 (HBV assay)
Method: HBV replication assay. Inhibition of HBV replication was measured in HepDES19 cells as previously described (Cai, et al., 2014). Cells were seeded into 6-well plates and incubated in DMEM/F12, 10% fetal bovine serum (FBS), 1% penicillin/streptomycin (P/S) with 1 μg/ml tetracycline. Tetracycline was withdrawn after 24 hours. The test compound was applied to duplicate wells 48 hours later in medium containing a final DMSO concentration of 1%, and medium containing the compound was refreshed daily for the following two days. Cells were harvested and non-encapsidated nucleic acids were digested with micrococcal nuclease (New England Biolabs). HBV DNA was purified from capsids using QIAamp Cador Pathogen Mini Kit (Qiagen) with proteinase K incubation overnight at 37° C. TaqMan PCR was performed for 40 cycles at an annealing temperature of 60° C. Primers and probe (IDT Inc.) for the plus-polarity strand were: 5′[…]3′ (SEQ ID NO: 1); 5′[…]3′ (SEQ ID NO: 2); 5′/56-FAM/[…]/ZEN/[…]/3IABkFQ (SEQ ID NO: 3). Primers and probe for the minus-polarity strand were: 5′[…]3′ (SEQ ID NO: 4); 5′[…]3′ (SEQ ID NO: 5); 5′/56-FAM/[…]/ZEN/[…]/3IABkFQ (SEQ ID NO: 6).

HSV-2 [3] = experiment: Anti-HSV-2 replication assay in Vero cells, titers by plaque assay; assay type: cell-based, herpes simplex virus 2; details: for log reduction at 5 µM: read-out: HSV-2 Log suppression 5 μM; for log reduction at 50 µM: read-out: HSV-2 Log suppression 50 μM
HSV-1 [4] = details: 5 μM or less; cited from earlier work
[5] = Cytotoxicity reported with the HBV assay (Table 4); assay type: cell-based; details: human, hepatoma cells; read-out: CC50 (HBV assay table)
Method: (§2) Qualitative assessments of cytotoxicity were done visually by inspecting the cells in the primary screening assays. For the quantitative assays, cells were plated in 96-well plates at 1.0×10^4 per well. The next day the compounds were added at 0.78 to 100 μM in a final concentration of 1% (v/v) DMSO, and the cells were incubated for 24 hours under conditions identical to those employed for the viral replication inhibition assays. Mitochondrial toxicity was measured by incubating the cells with 0.25 mg/mL thiazolyl blue tetrazolium bromide (MTT, Sigma Aldrich Chemical Co.), the cultures were incubated for 60 min, metabolites were solubilized in acidic isopropanol, and absorbance was read at 570 nm. CC50 values were calculated by non-linear curve fitting using GraphPad Prism.

HSV = experiment: Anti-HSV SAR summary, HSV type not separated; assay type: cell-based, herpes simplex virus; details: grouped by activity at 50, 5 and 0.5 μM
Method: as §1
A series of over 20 synthetic αHTs were synthesized and tested to both confirm the initial SAR, and to provide leads for further optimization pursuits (FIG. 5). […] Specifically, biphenyl-containing molecules #118 and 115 inhibit HSV replication by up to 4 log10 at 200 nM. The increased potency over close analogs #111 and 113 confirmed the importance of added lipophilicity.

[6] = Quantitative Vero cell toxicity (MTT); assay type: cell-based; details: African green monkey, Vero cells
Method: as §2
Quantitative toxicity measurements were conducted for all compounds that suppressed HSV replication by >2 log10 at 5 μM plus a number of compounds with lesser inhibitory activity for comparison. Toxicity was assessed by […]. Cells were plated in 96-well plates at 1.0×10^4 per well. The next day compound was added in concentrations ranging from 0.78 to 100 μM in a final concentration of 1% (v/v) DMSO. The cells were incubated for 24 h under conditions identical to those employed for the viral replication inhibition assays, and then mitochondrial activity was measured with the MTT assay (Sigma Aldrich) according to the manufacturer's instructions. Percent viability was determined for each compound concentration from the […], and then 50% cytotoxic concentrations (CC50) values were calculated by non-linear curve fitting using GraphPad Prism. Consistent with the subjective assessments of toxicity, all compounds selected for quantitative toxicity assessment had CC50 values≥50 μM under these conditions (Table 1).

[7] = tested on: TK-deficient mutant of HSV-2 strain 333, ΔTK-; experiment: Replication of acyclovir-resistant TK-deficient HSV-2 mutant in Vero cells; assay type: cell-based, herpes simplex virus 2; details: 5 μM, 24 hr, FIG. 4
Method: FIGS. 4A & 4B. Sensitivity of thymidine kinase-deficient HSV-2 to αHT compounds. […] Duplicate cultures were collected 24 hours post-infection and infectious virus titers were determined by plaque assay. Titers in compound-treated samples were subtracted from DMSO-treated samples. Values are the averages±one standard error of the mean. α-Hydroxytropolones inhibit an ACV-resistant mutant of HSV-2. […] Log10 suppression was determined relative to the diluent control. Data are the averages of data from duplicate samples±ranges from one of two independent experiments at each concentration.
Vero cells were maintained in Dulbecco's modified Eagle's medium (DMEM) containing 3% newborn calf serum, 3% bovine growth serum, 2 mM L-glutamine and 100 IU/mL penicillin and 0.1 mg/mL streptomycin (P/S). HSV-1 #6 and HSV-2 #1 are de-identified clinical isolates from the Saint Louis University Hospital. Stocks were prepared after a single passage in cell culture and were titered by standard plaque assay (Knipe and Spang, 1982). Wild-type HSV-2 used in FIG. 3 was laboratory strain 333. The TK-deficient mutant of HSV-2 strain 333, ΔTK-, contains a 180-bp KpnI-KpnI deletion in the UL23 open reading frame that abrogates TK activity (McDermott, et al, 1984). ΔTK- was the generous gift of Jim Smiley. Virus stocks were grown and titered on Vero cells (Morrison and Knipe, 1996).
HSV TK-deficient mutants are therefore insensitive to ACV. […] Vero cells were infected with a laboratory strain of HSV-2 and an engineered TK-deficient mutant of the same strain.

[8] = Mouse liver microsome assay; assay type: in vitro ADME; details: 1 μM in mouse liver microsomes
Method: Microsomal incubations are run at a final P450 concentration of 0.25 μM. The microsomal mixture is composed of 0.1M potassium phosphate containing 3.3 mM MgCl and 1 μM compound (final concentration). The mixture is prewarmed for 5 min at 37° C. To initiate the reaction a 12 mM stock of NAPDH (1.2 mM, final concentration) is added to the warmed microsomal mixture and aliquots are removed at 0, 5, 10, 20 and 30 min. Samples are quenched with ice cold acetonitrile containing internal standard and either 1.8 mM EDTA or EGTA (final concentration). Samples are vortexed and spun down at 3200 rpm for 5 min. The supernant is transferred to 96-deep well plates and run on LC/MS/MS.

[9] = Human alphaherpesvirus 2, Vero, 24 h

| Structure (SMILES) | log reduction at 5 µM (HSV-1 [1]; Human alphaherpesvirus 1, Vero) | log reduction at 50 µM (HSV-1 [1]; Human alphaherpesvirus 1, Vero) | suppression of HSV-2 replication in cell culture, in words (HSV-2 [2]) | EC50 (HBV) | log reduction at 5 µM (HSV-2 [3]; [9]) | log reduction at 50 µM (HSV-2 [3]; [9]) | suppression of HSV-1 replication in cell culture, in words (HSV-1 [4]) | CC50 at 24 h [5] | anti-HSV SAR group, in words (HSV) | CC50 at 24 h [6] | inhibition of the TK-mutant strain, in words [7] | EC50 (HSV-1 [1]; Human alphaherpesvirus 1, Vero) | other results |
| --- | --- | --- | --- | --- | --- | --- | --- | --- | --- | --- | --- | --- | --- |
| Cc1cc(O)c(=O)c(O)cc1C(=O)C(C)C [Compound 143] | 0.25 | 5.93 | strongly suppress | 6 µM | 0 | 4.78 | strongly suppress | > 100 µM | weakest inhibitors |  |  |  |  |
| Nc1nc2c(ncn2COCCO)c(=O)[nH]1 [ACV, Acyclovir, reference compound] |  |  |  |  |  |  |  |  |  | > 100 µM | little effect |  | log reduction at 5 µM (HSV-1 [1]; Human alphaherpesvirus 1, Vero, 5 μM, moi 0.1, 24 h, vs DMSO, +/− are qualitative, key not given): 4.22; log reduction at 50 µM (HSV-1 [1]; Human alphaherpesvirus 1, Vero, 50 μM, moi 0.1, 24 h, vs DMSO, +/−/T are qualitative, key not given): 5.39; log reduction at 5 µM (HSV-2 [3]; Human alphaherpesvirus 2, Vero, 24 h, 5 μM, moi 0.1, 24 h, vs DMSO, +/− are qualitative, key not given): 3.6; log reduction at 50 µM (HSV-2 [3]; Human alphaherpesvirus 2, Vero, 24 h, 50 μM, moi 0.1, 24 h, vs DMSO, +/−/T are qualitative, key not given): 4.73 |
| Cc1cc(O)c(=O)c(O)cc1C(=O)C1CCCCC1 [Compound 120] | 4.84 | 5.53 | strongly suppress |  | 5.41 | 5.07 | strongly suppress | 24 µM | fully inhibitory at 5 μM | ~50 µM |  |  |  |
| COC(=O)c1c(C)cc(O)c(=O)c(O)c1O [Compound 196] | 4.17 | 3.99 |  | 6.5 µM | 4.05 | 4.56 |  | 13 µM |  | > 100 µM | efficiently inhibited | 0.1 µM | log reduction at 1.5 µM (HSV-1 [1]; Human alphaherpesvirus 1, Vero, read-out: HSV-1 Log suppression 1.5 μM): 3.82; inhibition of wild-type HSV-2, in words (HSV-2 [3]; 5 μM, laboratory strain, 24 hr, FIG. 4): efficiently inhibited; EC50 (HSV-2 [3]; Human alphaherpesvirus 2, Vero, 24 h, read-out: HSV-2 EC50): 2.57 µM |
| Cc1cc(O)c(=O)c(O)cc1C(=O)c1ccccc1 [Compound 111] | 4.28 |  | strongly suppress |  | 3.21 |  | strongly suppress | 31 µM | fully inhibitory at 5 μM | > 50 µM |  |  |  |
| Cc1cc(O)c(=O)c(O)cc1-c1cccc2ccccc12 [Compound 146] | 5.68 | 6.2 |  | 2.3 µM | 5.66 | 5.29 |  | 12 µM | highly inhibitory at much lower concentrations; also recorded: fully inhibitory at 0.5 μM | > 100 µM |  | 0.45 µM | HSV-1 inhibition, fold (HSV-1 [1]; 5 μM): 478,600 fold; Non-P450 turn-over [8]: No; half-life at 1 μM ([8]; read-out: t ½): > 2 h; ER ([8]; extraction ratio): <0.1; HSV-2 inhibition, fold (HSV-2 [3]; 5 μM): 457,100 fold |
